Experimental data: PubChem BioAssay (NCI)
Values joined by “and” are separate entries in the source; they are usually repeats but may differ in a detail not shown here. Equal values may be shown once.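 Briefly, cells in 96-well plates were exposed to five compound concentrations for 48 h, and endpoints were estimated by linear interpolation. GI50 marks 50% less growth. TGI: concentration producing complete growth inhibition.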

Tests used:
Test in all cases: growth of human tumour cells (NCI), 48 h
[1] = test system: OVCAR-8 ovarian
[2] = test system: UACC-62 melanoma
[3] = test system: IGROV1 ovarian
[4] = test system: HCT-15 colon
[5] = test system: RPMI-8226 leukemia
[6] = test system: SK-OV-3 ovarian
[7] = test system: DU-145 prostate
[8] = test system: NCI-H226 lung
[9] = test system: MDA-MB-231 breast
[10] = test system: SNB-75 CNS

SMILES	TGI [1]	TGI [2]	TGI [3]	TGI [4]	TGI [5]	TGI [6]	TGI [7]	TGI [8]	TGI [9]	TGI [10]	GI50 [1]	GI50 [2]	GI50 [3]	GI50 [4]	GI50 [5]	GI50 [6]	GI50 [7]	GI50 [8]	GI50 [9]	GI50 [10]
c1cc(CCN2CCCCC2)ccn1	> 100 µM	> 100 µM	> 100 µM	> 100 µM	> 100 µM	> 100 µM	> 100 µM	> 100 µM	> 100 µM	> 100 µM	–	–	–	–	–	–	–	–	–	–
O=C(/C=C/c1cccs1)c1ccc(Nc2nc(Nc3ccc(F)cc3)nc(Nc3ccc(F)cc3)n2)cc1	51.2 µM	> 100 µM	41 µM	> 100 µM	> 100 µM	> 100 µM	> 100 µM	> 100 µM	> 100 µM	70.4 µM	21.7 µM	> 100 µM	18 µM	37.4 µM	20.9 µM	56 µM	52.7 µM	> 100 µM	34.7 µM	22.5 µM
O=C1/C(=C/c2ccccc2F)CNC/C1=C\c1ccccc1F	4.27 µM and 2.91 µM	10.3 µM and 3.72 µM	2.49 µM and 3.19 µM	0.511 µM and 1.16 µM	0.697 µM and 0.563 µM	4.01 µM and 3.12 µM	2.05 µM and 2.01 µM	10.7 µM and 3.91 µM	3.17 µM and 2.36 µM	4.74 µM and 4.33 µM	0.338 µM and 0.369 µM	6.38 µM and 1.5 µM	0.809 µM and 1.2 µM	0.196 µM and 0.291 µM	0.191 µM and 0.22 µM	1.68 µM and 1.58 µM	0.642 µM and 0.71 µM	3.15 µM and 1.46 µM	1.18 µM and 0.653 µM	2 µM and 1.54 µM
C/C(=C\c1ccn(-c2ccc(N)c(F)c2)n1)[C@@H]1C[C@@H]2O[C@]2(C)CCC[C@H](C)[C@H](O)[C@@H](C)C(=O)C(C)(C)[C@@H](O)CC(=O)O1	> 50 µM	> 50 µM	> 50 µM	> 50 µM	> 25.4 µM	> 50 µM	0.121 µM	> 50 µM	> 50 µM	0.0725 µM	0.0239 µM	0.0517 µM	0.0599 µM	0.00913 µM	0.00955 µM	0.0262 µM	0.0155 µM	7.99 µM	0.0695 µM	< 0.005 µM
Nc1ncnc2c1ncn2CC(O)C(=O)O (configuration not stated)	> 100 µM	> 100 µM	> 100 µM	> 100 µM	> 100 µM	> 100 µM	> 100 µM	> 100 µM	> 100 µM	> 100 µM	–	–	–	–	–	–	–	–	–	–
O=Cc1cn(Cc2cccc(Cl)c2)c2ccccc12	31.3 µM	6.45 µM	14.7 µM	25.2 µM	25.2 µM	16 µM	25 µM	0.0499 µM	21.5 µM	25.1 µM	10.3 µM	0.533 µM	0.263 µM	11.6 µM	4.76 µM	1.8 µM	12.5 µM	–	7.72 µM	8.99 µM
COc1ccc(C/C(C)=C(\c2ccc(OCCN3CCOCC3)cc2)c2ccc(OC(=O)Cc3ccccc3)cc2)cc1	11.3 µM	1.06 µM	5.03 µM	1.5 µM	1.31 µM	4.45 µM	20.4 µM	2.38 µM	1.26 µM	4.47 µM	1.07 µM	0.527 µM	1.13 µM	0.566 µM	0.531 µM	0.978 µM	1.33 µM	0.691 µM	0.583 µM	0.692 µM
CC(C)(O)C1CCC(Nc2ccc3ncc(-c4cccc(C(F)(F)F)c4)n3n2)CC1 (configuration not stated)	13.4 µM	8.83 µM	11.6 µM	11.3 µM	0.79 µM	9.19 µM	14.8 µM	27 µM	14 µM	8.99 µM	2.97 µM	1.97 µM	2.48 µM	2.17 µM	0.266 µM	2.68 µM	3.52 µM	2.19 µM	1.96 µM	1.77 µM
NC1=C(Br)C(=O)c2ncccc2C1=O	2.24 µM	0.713 µM	2.62 µM	1.65 µM	3.81 µM	3.24 µM	2.14 µM	3.59 µM	8.8 µM	0.664 µM	–	–	–	–	–	–	0.709 µM	–	2.01 µM	–
C=C(C)C(=O)OC1CC2=CC(CC3(C)OC3C3OC(=O)C(=C)C13)OC2=O (configuration not stated)	18.1 µM	22 µM	38.8 µM	20.2 µM	2.75 µM	36.8 µM	51.8 µM	39 µM	37.1 µM	28.5 µM	–	–	–	–	0.865 µM	–	–	–	–	–
CC(C)[C@@]12C[C@@H](OC(=O)COC(=O)/C=C/c3ccccc3)[C@@](C)(O1)[C@@H]1CC[C@@H](C)[C@H]1[C@@H]2OC(=O)/C=C/c1ccccc1	> 100 µM	> 100 µM	> 100 µM	> 100 µM	> 100 µM	> 100 µM	> 100 µM	> 100 µM	> 100 µM	> 100 µM	0.173 µM	> 100 µM	> 100 µM	> 100 µM	> 89.4 µM	> 100 µM	> 100 µM	> 100 µM	> 100 µM	> 100 µM
